Each structure is given as a SMILES string.

Assay [1] addresses Protein-tyrosine kinase 6 (Homo sapiens, UniProt Q13882). As to the kind of experiment: Selectivity interaction (Ambit KINOMEscan and KiNATiv profiling in Jurkat cells) EUB0000090b PTK6. Format: cell-based. The following applies: at 1 µM.
Assay [2] deals with Sodium-dependent serotonin transporter (Homo sapiens, UniProt P31645). As to the kind of experiment: Selectivity interaction (GPCR panel (PDSP screen)) EUB0001079a SLC6A4. The following applies: at 10 µM.
In assay [3] the target is Tyrosine-protein kinase Lck (Homo sapiens, UniProt P06239). As to the kind of experiment: Selectivity interaction (Millipore kinase profiler) EUB0000124b LCK. The following applies: at 10 µM.
Assay [4] has as its target T1, Cyclin-G-associated kinase (Homo sapiens) (UniProt O14976).
T1 sequence (whole entry): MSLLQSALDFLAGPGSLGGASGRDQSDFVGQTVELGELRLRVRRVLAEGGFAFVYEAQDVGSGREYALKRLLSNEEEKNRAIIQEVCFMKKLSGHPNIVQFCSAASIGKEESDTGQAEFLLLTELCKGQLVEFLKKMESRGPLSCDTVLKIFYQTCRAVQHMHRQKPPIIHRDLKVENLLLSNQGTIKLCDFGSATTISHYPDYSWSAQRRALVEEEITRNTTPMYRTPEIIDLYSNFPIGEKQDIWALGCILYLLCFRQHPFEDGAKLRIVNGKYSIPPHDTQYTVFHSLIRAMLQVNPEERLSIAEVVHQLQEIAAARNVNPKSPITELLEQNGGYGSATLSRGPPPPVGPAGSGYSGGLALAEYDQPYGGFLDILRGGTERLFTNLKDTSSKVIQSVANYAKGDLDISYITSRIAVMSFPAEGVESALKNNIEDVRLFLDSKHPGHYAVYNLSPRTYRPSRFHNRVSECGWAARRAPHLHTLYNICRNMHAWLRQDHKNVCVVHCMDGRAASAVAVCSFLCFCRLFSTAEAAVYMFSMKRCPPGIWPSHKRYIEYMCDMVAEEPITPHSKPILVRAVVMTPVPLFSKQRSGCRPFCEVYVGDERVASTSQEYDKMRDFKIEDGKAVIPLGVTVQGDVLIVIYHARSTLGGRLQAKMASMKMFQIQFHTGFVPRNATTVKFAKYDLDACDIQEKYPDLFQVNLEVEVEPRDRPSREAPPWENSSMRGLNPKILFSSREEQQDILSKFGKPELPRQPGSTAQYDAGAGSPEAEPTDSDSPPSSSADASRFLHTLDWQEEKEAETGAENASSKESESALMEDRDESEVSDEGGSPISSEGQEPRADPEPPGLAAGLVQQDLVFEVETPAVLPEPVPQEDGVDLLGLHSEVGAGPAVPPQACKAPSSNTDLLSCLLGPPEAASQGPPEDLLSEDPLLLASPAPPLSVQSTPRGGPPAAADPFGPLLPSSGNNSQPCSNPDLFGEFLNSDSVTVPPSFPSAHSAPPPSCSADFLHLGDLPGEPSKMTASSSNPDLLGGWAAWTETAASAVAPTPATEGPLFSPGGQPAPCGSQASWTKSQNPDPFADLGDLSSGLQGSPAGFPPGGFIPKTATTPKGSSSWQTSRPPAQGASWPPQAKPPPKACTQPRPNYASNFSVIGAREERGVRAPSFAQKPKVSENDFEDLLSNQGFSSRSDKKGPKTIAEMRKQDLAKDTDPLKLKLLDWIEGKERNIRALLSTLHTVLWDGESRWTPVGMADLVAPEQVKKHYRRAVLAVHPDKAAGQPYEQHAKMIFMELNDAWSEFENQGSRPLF
Kind of assay: Selectivity interaction (KinomeScan (DiscoverX)) EUB0001049a GAK. The following applies: at 1 µM.

In assay [5] the target is Tyrosine-protein kinase receptor UFO (Homo sapiens) (UniProt P30530). Kind of assay: Selectivity interaction (KinomeScan (DiscoverX)) EUB0001049a AXL. The settings on record: at 1 µM.
For assay [6], the target named is Mitogen-activated protein kinase 3 (Homo sapiens, UniProt P27361). Kind of assay: Selectivity interaction (KinomeScan (DiscoverX)) EUB0000655a MAPK3. The settings on record: at 10 µM.
For assay [7], the target named is T2, Serine/threonine-protein kinase NLK (Homo sapiens) (UniProt Q9UBE8).
T2 sequence (whole entry): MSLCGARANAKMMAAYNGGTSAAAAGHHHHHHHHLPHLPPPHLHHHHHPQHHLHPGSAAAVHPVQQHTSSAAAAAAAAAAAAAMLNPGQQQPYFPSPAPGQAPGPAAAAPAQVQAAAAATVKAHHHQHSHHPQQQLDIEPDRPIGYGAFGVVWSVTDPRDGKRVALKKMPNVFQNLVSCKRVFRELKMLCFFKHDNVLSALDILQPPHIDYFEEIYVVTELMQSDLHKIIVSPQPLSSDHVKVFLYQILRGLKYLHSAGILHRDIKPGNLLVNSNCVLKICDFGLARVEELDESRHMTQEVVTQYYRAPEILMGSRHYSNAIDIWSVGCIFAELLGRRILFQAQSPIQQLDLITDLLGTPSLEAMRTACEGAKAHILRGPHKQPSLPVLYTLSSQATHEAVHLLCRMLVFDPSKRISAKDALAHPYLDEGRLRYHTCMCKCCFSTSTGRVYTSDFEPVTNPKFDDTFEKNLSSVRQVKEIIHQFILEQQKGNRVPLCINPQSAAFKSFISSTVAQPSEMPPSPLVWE
As to the kind of experiment: Selectivity interaction (KinomeScan (DiscoverX)) EUB0000666a NLK. The following applies: at 10 µM.

For assay [8], the target named is Fibroblast growth factor receptor 4 (Homo sapiens, UniProt P22455). Kind of assay: Selectivity interaction (Kinase panel (Z-LYTE Assay)) EUB0001632a FGFR4. The settings on record: at 10 µM.
The target of assay [9] is RAC-alpha serine/threonine-protein kinase (Homo sapiens, UniProt P31749). As to the kind of experiment: Selectivity interaction (Rxn Biology Kinase assay) EUB0001632a AKT1. The settings on record: at 10 µM.
Assay [10] deals with MAP/microtubule affinity-regulating kinase 3 (Homo sapiens) (UniProt P27448). Kind of assay: Selectivity interaction (ActivX KiNativ screen (kinase selectivity in THP-1 cell lysates)) EUB0000639a MARK3. Format: subcellular. The following applies: lysate, at 0.04 µM.
Assay [11] deals with Activin receptor type-2B (Homo sapiens) (UniProt Q13705). Kind of assay: Selectivity interaction (Kinase panel (Invitrogen)) EUB0000639a ACVR2B. The settings on record: at 200 nM.
The target in assay [12] is Mitogen-activated protein kinase 8 (Homo sapiens, UniProt P45983). Kind of assay: Selectivity interaction (ActivX KiNativ screen (ex vivo kinase selectivity in human PBMCs)) EUB0001619a MAPK8. Format: cell-based. The following applies: PBMC, at 1 µM.
In assay [13] the target is RAC-gamma serine/threonine-protein kinase (Homo sapiens, UniProt Q9Y243). As to the kind of experiment: Selectivity interaction (KinomeScan (DiscoverX)) EUB0001619a AKT3. The settings on record: at 1 µM.
Chain of RAC-gamma serine/threonine-protein kinase (Q9Y243 whole entry): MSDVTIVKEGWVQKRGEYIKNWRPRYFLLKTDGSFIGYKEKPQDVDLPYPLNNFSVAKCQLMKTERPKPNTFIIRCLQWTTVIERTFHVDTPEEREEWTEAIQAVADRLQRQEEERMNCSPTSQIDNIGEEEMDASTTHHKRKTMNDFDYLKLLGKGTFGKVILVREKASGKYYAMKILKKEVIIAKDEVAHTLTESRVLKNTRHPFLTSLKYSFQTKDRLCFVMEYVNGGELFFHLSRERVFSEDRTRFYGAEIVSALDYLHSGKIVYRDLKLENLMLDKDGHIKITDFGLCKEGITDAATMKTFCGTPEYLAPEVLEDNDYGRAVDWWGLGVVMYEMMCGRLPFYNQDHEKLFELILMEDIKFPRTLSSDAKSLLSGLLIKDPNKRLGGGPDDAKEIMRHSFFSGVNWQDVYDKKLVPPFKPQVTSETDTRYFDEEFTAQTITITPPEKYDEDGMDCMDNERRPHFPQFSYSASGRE

Chain of RAC-alpha serine/threonine-protein kinase (P31749 whole entry): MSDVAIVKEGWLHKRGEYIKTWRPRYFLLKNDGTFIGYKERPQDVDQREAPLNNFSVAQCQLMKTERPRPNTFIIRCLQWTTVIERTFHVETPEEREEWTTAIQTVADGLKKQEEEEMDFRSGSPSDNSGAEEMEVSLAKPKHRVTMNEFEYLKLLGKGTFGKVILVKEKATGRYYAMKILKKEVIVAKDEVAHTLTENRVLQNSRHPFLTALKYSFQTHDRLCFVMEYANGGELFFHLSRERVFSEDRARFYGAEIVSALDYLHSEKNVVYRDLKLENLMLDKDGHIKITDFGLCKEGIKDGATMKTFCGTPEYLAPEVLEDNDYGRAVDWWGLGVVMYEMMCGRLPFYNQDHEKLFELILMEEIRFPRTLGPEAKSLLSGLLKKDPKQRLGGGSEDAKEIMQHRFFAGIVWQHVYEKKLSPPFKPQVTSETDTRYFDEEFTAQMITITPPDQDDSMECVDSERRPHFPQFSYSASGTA
Chain of Mitogen-activated protein kinase 8 (P45983 whole entry): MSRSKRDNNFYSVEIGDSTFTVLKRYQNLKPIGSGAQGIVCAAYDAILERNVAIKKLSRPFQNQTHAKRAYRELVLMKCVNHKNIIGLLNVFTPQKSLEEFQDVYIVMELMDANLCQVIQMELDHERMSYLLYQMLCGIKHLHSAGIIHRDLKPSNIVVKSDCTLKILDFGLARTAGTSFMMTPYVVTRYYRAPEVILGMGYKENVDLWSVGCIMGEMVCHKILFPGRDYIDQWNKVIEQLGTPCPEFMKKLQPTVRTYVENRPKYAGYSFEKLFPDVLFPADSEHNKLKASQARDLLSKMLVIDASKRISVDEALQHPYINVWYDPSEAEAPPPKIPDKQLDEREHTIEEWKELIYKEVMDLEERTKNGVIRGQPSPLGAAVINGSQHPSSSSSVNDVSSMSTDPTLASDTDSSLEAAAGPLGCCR
Chain of MAP/microtubule affinity-regulating kinase 3 (Homo sapiens) (P27448 whole entry, looked up): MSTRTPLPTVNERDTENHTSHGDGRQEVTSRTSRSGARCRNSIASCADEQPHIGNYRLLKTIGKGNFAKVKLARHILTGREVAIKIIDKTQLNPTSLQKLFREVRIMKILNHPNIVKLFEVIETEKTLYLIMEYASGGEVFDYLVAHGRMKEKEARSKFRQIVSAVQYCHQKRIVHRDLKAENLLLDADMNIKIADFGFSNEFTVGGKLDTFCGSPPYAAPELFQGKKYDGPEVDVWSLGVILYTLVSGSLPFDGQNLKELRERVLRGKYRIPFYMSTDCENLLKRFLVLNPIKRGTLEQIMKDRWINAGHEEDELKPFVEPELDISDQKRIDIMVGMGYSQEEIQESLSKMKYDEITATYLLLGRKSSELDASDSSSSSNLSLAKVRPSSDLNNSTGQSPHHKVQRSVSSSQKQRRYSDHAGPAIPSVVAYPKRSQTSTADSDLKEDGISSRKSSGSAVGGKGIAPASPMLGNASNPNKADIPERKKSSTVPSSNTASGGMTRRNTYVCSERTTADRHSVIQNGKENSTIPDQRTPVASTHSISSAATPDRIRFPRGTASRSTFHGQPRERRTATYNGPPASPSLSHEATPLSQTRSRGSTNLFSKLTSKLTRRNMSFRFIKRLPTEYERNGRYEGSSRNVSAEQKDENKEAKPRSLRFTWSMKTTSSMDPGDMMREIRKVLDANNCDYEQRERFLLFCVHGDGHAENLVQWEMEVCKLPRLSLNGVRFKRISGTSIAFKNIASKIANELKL
Chain of Mitogen-activated protein kinase 3 (P27361 whole entry): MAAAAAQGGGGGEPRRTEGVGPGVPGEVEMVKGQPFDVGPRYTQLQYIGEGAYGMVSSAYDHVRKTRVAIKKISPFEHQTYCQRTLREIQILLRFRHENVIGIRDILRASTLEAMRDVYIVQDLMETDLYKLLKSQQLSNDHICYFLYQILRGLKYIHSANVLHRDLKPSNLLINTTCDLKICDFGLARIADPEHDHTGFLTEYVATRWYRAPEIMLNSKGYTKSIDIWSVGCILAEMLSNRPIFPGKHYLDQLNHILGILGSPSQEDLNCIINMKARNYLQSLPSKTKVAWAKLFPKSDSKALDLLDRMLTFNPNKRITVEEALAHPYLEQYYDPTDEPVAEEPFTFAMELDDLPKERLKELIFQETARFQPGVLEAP
Chain of Activin receptor type-2B (Homo sapiens) (Q13705 whole entry): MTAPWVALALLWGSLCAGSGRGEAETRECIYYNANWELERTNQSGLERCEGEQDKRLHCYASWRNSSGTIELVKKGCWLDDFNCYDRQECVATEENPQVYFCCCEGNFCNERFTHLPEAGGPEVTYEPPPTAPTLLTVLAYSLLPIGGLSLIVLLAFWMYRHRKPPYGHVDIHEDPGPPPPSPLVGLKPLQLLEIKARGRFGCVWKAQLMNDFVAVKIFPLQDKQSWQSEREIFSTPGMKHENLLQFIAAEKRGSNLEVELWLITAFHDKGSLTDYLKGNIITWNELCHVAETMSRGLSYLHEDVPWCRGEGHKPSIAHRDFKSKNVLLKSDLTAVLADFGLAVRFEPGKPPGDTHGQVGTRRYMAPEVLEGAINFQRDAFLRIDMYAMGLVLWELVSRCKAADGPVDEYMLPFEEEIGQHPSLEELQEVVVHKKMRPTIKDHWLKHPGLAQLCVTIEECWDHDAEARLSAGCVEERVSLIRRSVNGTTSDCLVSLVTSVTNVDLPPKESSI
Chain of Tyrosine-protein kinase Lck (P06239 2-509 limits assumed): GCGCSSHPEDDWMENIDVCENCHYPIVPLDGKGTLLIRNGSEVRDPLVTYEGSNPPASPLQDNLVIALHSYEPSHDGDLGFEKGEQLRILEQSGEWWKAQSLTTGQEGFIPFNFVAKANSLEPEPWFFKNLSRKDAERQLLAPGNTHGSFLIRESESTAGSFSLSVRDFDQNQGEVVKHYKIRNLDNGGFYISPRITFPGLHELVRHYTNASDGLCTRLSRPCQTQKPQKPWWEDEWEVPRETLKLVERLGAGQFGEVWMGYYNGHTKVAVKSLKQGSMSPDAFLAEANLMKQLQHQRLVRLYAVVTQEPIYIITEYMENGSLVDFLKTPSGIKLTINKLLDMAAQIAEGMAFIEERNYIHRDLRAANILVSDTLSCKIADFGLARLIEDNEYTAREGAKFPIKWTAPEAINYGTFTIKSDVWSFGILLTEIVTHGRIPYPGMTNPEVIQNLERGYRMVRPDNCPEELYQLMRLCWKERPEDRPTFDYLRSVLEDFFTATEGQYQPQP
Chain of Fibroblast growth factor receptor 4 (P22455 22-802 limits assumed): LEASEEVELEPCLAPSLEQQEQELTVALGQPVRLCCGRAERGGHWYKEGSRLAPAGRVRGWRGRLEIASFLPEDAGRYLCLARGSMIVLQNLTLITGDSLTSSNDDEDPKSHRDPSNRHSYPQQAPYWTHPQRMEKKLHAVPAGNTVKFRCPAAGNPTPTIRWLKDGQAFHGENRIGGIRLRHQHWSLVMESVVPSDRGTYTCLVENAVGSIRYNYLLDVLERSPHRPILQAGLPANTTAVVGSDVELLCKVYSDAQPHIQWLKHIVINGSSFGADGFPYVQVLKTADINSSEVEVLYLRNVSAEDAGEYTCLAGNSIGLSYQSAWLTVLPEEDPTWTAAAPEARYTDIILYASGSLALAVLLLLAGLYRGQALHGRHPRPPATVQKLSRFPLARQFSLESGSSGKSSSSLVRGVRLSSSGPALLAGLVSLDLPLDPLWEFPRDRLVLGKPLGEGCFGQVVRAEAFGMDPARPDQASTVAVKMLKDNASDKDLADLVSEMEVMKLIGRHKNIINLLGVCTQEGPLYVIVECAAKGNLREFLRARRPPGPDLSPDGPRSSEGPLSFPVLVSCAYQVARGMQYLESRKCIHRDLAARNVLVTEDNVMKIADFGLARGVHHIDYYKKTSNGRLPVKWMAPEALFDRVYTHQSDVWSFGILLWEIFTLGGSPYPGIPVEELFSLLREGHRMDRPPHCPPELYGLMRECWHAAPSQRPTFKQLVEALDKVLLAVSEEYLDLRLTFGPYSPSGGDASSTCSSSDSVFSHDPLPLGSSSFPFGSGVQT
Chain of Sodium-dependent serotonin transporter (P31645 whole entry, looked up): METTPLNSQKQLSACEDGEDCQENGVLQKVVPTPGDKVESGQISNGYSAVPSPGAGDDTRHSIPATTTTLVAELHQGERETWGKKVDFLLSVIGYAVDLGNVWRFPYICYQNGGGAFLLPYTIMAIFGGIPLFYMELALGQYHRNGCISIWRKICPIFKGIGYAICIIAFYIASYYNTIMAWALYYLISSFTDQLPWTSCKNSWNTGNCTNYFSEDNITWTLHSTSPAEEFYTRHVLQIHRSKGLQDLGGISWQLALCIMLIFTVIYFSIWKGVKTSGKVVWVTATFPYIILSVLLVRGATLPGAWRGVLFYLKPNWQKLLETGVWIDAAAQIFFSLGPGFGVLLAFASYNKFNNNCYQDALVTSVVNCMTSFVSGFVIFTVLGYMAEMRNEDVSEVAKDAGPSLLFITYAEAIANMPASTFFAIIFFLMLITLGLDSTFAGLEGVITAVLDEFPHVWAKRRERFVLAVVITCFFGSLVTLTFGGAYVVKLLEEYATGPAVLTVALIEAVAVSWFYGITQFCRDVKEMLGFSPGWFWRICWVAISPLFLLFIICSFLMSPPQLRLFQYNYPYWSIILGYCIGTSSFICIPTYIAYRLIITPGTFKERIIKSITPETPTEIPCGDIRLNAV

For the molecule `CN(C)C/C=C/C(=O)Nc1ccc(C(=O)N2CCCC(Nc3ncc(Cl)c(-c4c[nH]c5ccccc45)n3)C2)cc1` (stereo not drawn), the % of control in [1] was determined as 84%. As for `Nc1cnc(N2CCc3cc(S(=O)(=O)Nc4c(F)cc(Cl)cc4F)cc(N4CCCC4=O)c32)nc1` [TP-020n], the % of inhibition in assay [2] turned out to be 9.34%. `CC(=O)Nc1cccc(-n2c(=O)n(C3CC3)c(=O)c3c(Nc4ccc(I)cc4F)n(C)c(=O)c(C)c32)c1` gave a % of control in assay [3] of 110%. Consider `COc1cc(Nc2nc(C)cc(-c3cnn4nc(OC)ccc34)n2)cc(C(F)(F)F)c1`, for which the % of control in [4] came to 87%; in [5], 100%. `CN(C)CCOc1ccc(-c2nc(-c3ccncc3)c(-c3ccc4c(c3)CC/C4=N\O)[nH]2)cc1` yielded a % of control in assay [6] of 100%. `O=C(NOC[C@H](O)CO)c1ccc(F)c(F)c1Nc1ccc(I)cc1F` gave a % of control in assay [7] of 77%. `Cn1cc(-n2cnc3c(NCc4nc5cc(Cl)c(Cl)cc5[nH]4)nc(N4CCOCC4)nc32)cn1`: the % of control in [8] was 3.57%. Besides, in assay [9], the % of inhibition came to 0.245%. With `CC[C@@H]1[C@H](F)C(=O)N[C@@H]1COc1nccc2cc(C(N)=O)c(OC)cc12` [ZIMLOVISERTIB], the % of inhibition in assay [10] is 9.1%; in assay [11], 5.32%. In the case of `N#Cc1cccc(-c2c[nH]c3ncnc(N4CCOCC4)c23)c1`, in assay [12], the % of inhibition amounted to 5%. In assay [13], this molecule gave a % of control of 100%.

For the origin of these results see ChEMBL document CHEMBL5465560, “Selectivity Literature for EUbOPEN Chemogenomic Library” (2024).
